Measured values reported in article PMC6449538, “Antimicrobial Activity of Selected Antimicrobial Peptides Against Planktonic Culture and Biofilm of Acinetobacter baumannii” (Probiotics and Antimicrobial Proteins, 2018).
In brackets after ≈: the same amount, converted by molar mass. Where two headings read alike, the source gives them in different places. Where no end group is shown, it is not given here.

What was measured:
A. baumannii ATCC 19606 = assay: microbe, parasite or virus in culture; format: cell-based, Acinetobacter baumannii
Procedure: (§1) The A. baumannii ATCC 19606 strain was acquired from the American Type Culture Collection and prepared in line with the manufacturer’s instructions. The culture was stored in Roti®-Store Cryo-Vials (Carl Roth GmbH, Karlsruhe, Germany) at − 20 °C. Before the tests, the bead with cryo-protected bacteria was transferred into fresh MHB (Biocorp, Warsaw, Poland) and incubated for 24 h at 37 °C. Then, the culture was seeded on MHA plates and incubated as just mentioned. The agar cultures prepared in this way were used for further experiments. Cell densities for all assays were adjusted spectrophotometrically (Multiskan™ GO Microplate Spectrophotometer, Thermo Scientific) at 600 nm.
The MICs and MBCs were determined with the reference to the Clinical and Laboratory Standards Institute guidelines. MICs were determined by broth microdilution method. For this purpose, initial inoculums of bacteria (0.5 × 10^5 CFU/mL) in MHB were exposed to a series of concentrations (0.5–256 μg/mL) of the compounds and incubated for 18 h at 37 °C. The experiments were conducted on 96-well microtiter polystyrene plates with the final volume of 100 μL. The MIC was taken as the lowest drug concentration at which a noticeable growth of microorganisms was inhibited. In parallel, the MIC wells, two above and one below (positive control), were cultured on a MHA plate. […] All experiments were conducted in triplicate.

[1] = test system: A. baumannii ATCC 19606 biofilm; format: cell-based, Acinetobacter baumannii
Procedure: as §1
The antibiofilm activity was determined on 96-well flat-bottomed microtiter polystyrene plates and 0.5-cm fragments of tracheal tubes (RIM-75, ZARYS International Group, Zabrze, Poland), with resazurin (7-hydroxy-3H-phenoxazin-3-one 10-oxide) as a cell viability reagent. The first part included assay on 96-well plates. To do this, the plates were filled with 100 μL of the initial inoculums of bacteria (0.5 × 10^7 CFU/mL) in the MHB and incubated for 24 h at 37 °C. Then, the wells were rinsed three times with PBS to remove non-adhered cells and the fresh medium with a series of concentrations (0.5–256 μg/mL) of the compounds was added. After 24 h of incubation, 20 μL of resazurin (4 mg/mL) was added to each well and the MBEC values were read. The assay on tracheal tube fragments was conducted using 24-well polystyrene plates. Briefly, the tracheal tube fragments were dipped in 1 mL of the bacterial inoculum (0.5 × 10^7 CFU/mL) and incubated at 37 °C. After 24 h of incubation, the test fragments were rinsed three times with PBS and transferred into other wells containing the fresh medium with a series of concentrations of the test compounds. Subsequently, the plates were incubated again for 24 h at 37 °C. Then, 200 μL of resazurin was added and the MBEC was read. All experiments were conducted in triplicate.

[2] = Acinetobacter baumannii, ATCC19606, MIC wells cultured on MHA plate, 24 h at 37 °C, no visible growth, triplicate, read-out: MBC
[3] = 24 h biofilm on 0.5-cm tracheal tube fragments, 24 h treatment at 37 °C, resazurin read-out, triplicate
[4] = 24 h biofilm on polystyrene 96-well plates, 24 h treatment at 37 °C, resazurin read-out, triplicate
[5] = Acinetobacter baumannii, ATCC19606, broth microdilution (CLSI), MHB, inoculum 0.5 × 10^5 CFU/mL, 18 h at 37 °C, polystyrene 96-well plates, triplicate, read-out: MIC
[6] = MIC wells cultured on MHA plate, 24 h at 37 °C, no visible growth, triplicate
[7] = broth microdilution (CLSI), MHB, inoculum 0.5 × 10^5 CFU/mL, 18 h at 37 °C, polystyrene 96-well plates, triplicate

O=C(O)c1cn(C2CC2)c2cc(N3CCNCC3)c(F)cc2c1=O [Ciprofloxacin, reference compound]
MBC (A. baumannii ATCC 19606; [2]): 1 µg/mL (≈ 3.02 µM)
MBEC^tt [1, 3]: 1 µg/mL
MBEC [1, 4]: 2 µg/mL

CC[C@H]1OC(=O)[C@H](C)[C@@H](O[C@H]2C[C@@](C)(OC)[C@@H](O)[C@H](C)O2)[C@H](C)[C@@H](O[C@@H]2O[C@H](C)C[C@H](N(C)C)[C@H]2O)[C@](C)(O)C[C@@H](C)C(=O)[C@H](C)[C@@H](O)[C@]1(C)O [Erythromycin, reference compound]
MBC (A. baumannii ATCC 19606; [2]): 32 µg/mL (≈ 43.6 µM)
MIC (A. baumannii ATCC 19606; [5]): 32 µg/mL (≈ 43.6 µM)
MBEC^tt [1, 3]: 16 µg/mL
MBEC [1, 4]: 32 µg/mL

CNC(C)C1CCC(N)C(OC2C(N)CC(N)C(OC3OCC(C)(O)C(NC)C3O)C2O)O1 (stereo not drawn) [Gentamicin, reference compound]
MBC (A. baumannii ATCC 19606; [2]): 32 µg/mL (≈ 67 µM)
MIC (A. baumannii ATCC 19606; [5]): 16 µg/mL (≈ 33.5 µM)
MBEC^tt [1, 3]: 32 µg/mL
MBEC [1, 4]: 32 µg/mL

CCN1CCN(C(=O)N[C@@H](C(=O)N[C@@H]2C(=O)N3[C@@H]2SC(C)(C)[C@@H]3C(=O)O)c2ccccc2)C(=O)C1=O [Piperacillin, reference compound]
MBC (A. baumannii ATCC 19606; [2]): 128 µg/mL (≈ 247 µM)
MIC (A. baumannii ATCC 19606; [5]): 64 µg/mL (≈ 124 µM)
MBEC^tt [1, 3]: > 512 µg/mL
MBEC^tt ([1]; 24 h biofilm on 0.5-cm tracheal tube fragments, 24 h treatment at 37 °C, resazurin read-out, triplicate, listed as piperacillin): failed to eradicate the biofilm at any concentration
MBEC [1, 4]: failed to eradicate the biofilm at any concentration

CO[C@H]1/C=C/O[C@@]2(C)Oc3c(C)c(O)c4c(O)c(c(/C=N/N5CCN(C)CC5)c(O)c4c3C2=O)NC(=O)/C(C)=C\C=C\[C@H](C)[C@H](O)[C@@H](C)[C@@H](O)[C@@H](C)[C@H](OC(C)=O)[C@@H]1C [Rifampicin, reference compound]
MBC (A. baumannii ATCC 19606; [2]): 4 µg/mL (≈ 4.86 µM)
MIC (A. baumannii ATCC 19606; [5]): 4 µg/mL (≈ 4.86 µM)
MBEC^tt [1, 3]: 4 µg/mL
MBEC [1, 4]: 8 µg/mL

CN(C)[C@@H]1C(O)=C(C(N)=O)C(=O)[C@@]2(O)C(O)=C3C(=O)c4c(O)cccc4[C@@](C)(O)[C@H]3C[C@@H]12 [Tetracycline, reference compound]
MBC (A. baumannii ATCC 19606; [2]): 4 µg/mL (≈ 9 µM)
MIC (A. baumannii ATCC 19606; [5]): 2 µg/mL (≈ 4.5 µM)
MBEC^tt [1, 3]: 4 µg/mL
MBEC [1, 4]: 16 µg/mL

FLPLIGRVLSGIL-NH2 [Temporin A]
MIC (A. baumannii ATCC 19606; ATCC 19606, 18 h): 128 µg/mL
MBC (A. baumannii ATCC 19606; ATCC 19606, 24 h): 128 µg/mL
MBEC^tt ([1]; ATCC 19606, 24 h): 256 µg/mL

GIGKFLKKAKKFGKAFVKILKK-NH2 [Pexiganan]
MIC (A. baumannii ATCC 19606; ATCC 19606, 18 h): 2 µg/mL
MBC (A. baumannii ATCC 19606; ATCC 19606, 24 h): 4 µg/mL
MBEC ([1]; ATCC 19606, 24 h): 256 µg/mL
MBEC^tt ([1]; ATCC 19606, 24 h): 32 µg/mL

GLFDIIKKIAESF-NH2 [Aurein 1.2]
MBC (A. baumannii ATCC 19606; [6]): 16 µg/mL
MIC (A. baumannii ATCC 19606; [7]): 16 µg/mL
MBEC^tt [1, 3]: 32 µg/mL
MBEC [1, 4]: 64 µg/mL

GLFDVIKKVASVIGGL-NH2 [Citropin 1.1]
MIC (A. baumannii ATCC 19606; ATCC 19606, 18 h): 16 µg/mL
MBC (A. baumannii ATCC 19606; ATCC 19606, 24 h): 16 µg/mL
MBEC ([1]; ATCC 19606, 24 h): 256 µg/mL
MBEC^tt ([1]; ATCC 19606, 24 h): 32 µg/mL

ILRWPWWPWRRK-NH2 [Omiganan]
MIC (A. baumannii ATCC 19606; ATCC 19606, 18 h): 32 µg/mL
MBC (A. baumannii ATCC 19606; ATCC 19606, 24 h): 64 µg/mL
MBEC ([1]; ATCC 19606, 24 h): 256 µg/mL
MBEC^tt ([1]; ATCC 19606, 24 h): 128 µg/mL

KRRWPWWPWRLI-NH2 [r-Omiganan]
MIC (A. baumannii ATCC 19606; ATCC 19606, 18 h): 16 µg/mL
MBC (A. baumannii ATCC 19606; ATCC 19606, 24 h): 16 µg/mL
MBEC ([1]; ATCC 19606, 24 h): 256 µg/mL
MBEC^tt ([1]; ATCC 19606, 24 h): 128 µg/mL

KWKLFKKIGAVLKVL-NH2 [CAMEL]
MBC (A. baumannii ATCC 19606; [6]): 4 µg/mL
MIC (A. baumannii ATCC 19606; [7]): 2 µg/mL
MBEC^tt [1, 3]: 64 µg/mL
MBEC [1, 4]: 128 µg/mL
